Assay results reported in PMC10716780, “The multistep oxidation of cholesterol to pregnenolone by human cytochrome P450 11A1 is highly processive” (The Journal of Biological Chemistry, 2023).
“Also recorded” adds a separate entry of the source. Like-named read-outs stand apart in the source and are kept apart here.

Columns and labels:
human P450 11A1 [1] = biological target: T1, human P450 11A1 (Homo sapiens, UniProt P05108); experiment: Steady-state spectral (type I) binding titration, Kd determination; conditions: up to 1 mM
T1 construct: M A S T R S P R P F N E I P S P G D N; Met-Ala (N-terminal start residues in place of the transit peptide and Ile40) (N); made in house; host or cells: E. coli C41(DE3) with GroES/GroEL, vector pET23C(+)
T1 sequence (P05108 41-521 limits assumed): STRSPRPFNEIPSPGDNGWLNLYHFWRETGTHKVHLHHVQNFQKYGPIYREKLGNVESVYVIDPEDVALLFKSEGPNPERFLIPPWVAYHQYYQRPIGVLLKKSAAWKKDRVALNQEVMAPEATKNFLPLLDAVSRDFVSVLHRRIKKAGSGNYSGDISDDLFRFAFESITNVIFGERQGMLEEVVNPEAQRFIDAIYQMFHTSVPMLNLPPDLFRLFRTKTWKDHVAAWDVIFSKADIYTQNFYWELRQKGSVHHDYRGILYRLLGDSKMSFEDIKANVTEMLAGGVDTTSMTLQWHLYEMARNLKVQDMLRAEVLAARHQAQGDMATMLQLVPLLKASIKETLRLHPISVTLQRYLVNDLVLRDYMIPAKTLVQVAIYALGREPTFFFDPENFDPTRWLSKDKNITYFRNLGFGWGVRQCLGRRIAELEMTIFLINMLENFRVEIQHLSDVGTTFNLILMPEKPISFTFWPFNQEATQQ
Experimental: Ligand binding constants were determined from the low-to high-spin (hypsochromic) spectral transition that occurs at the P450 heme as substrate entering the active site replaces water as the sixth axial heme ligand. […] As a result, we subsequently measured koff values of the P450-sterol complexes, which were consistent with the low Kd values observed (see below). Binding titrations were repeated in the presence of Adx (1 M equivalent, Fig. 6), although no significant effect was observed, even when Adx was added in excess (10-fold with cholesterol as the substrate, data not shown).
Spectra were recorded using either an OLIS-Cary 14 or OLIS-Aminco DW2a instrument (On-Line Instrument Systems) in the split-beam mode. The OLIS-Cary 14 instrument was used in the P450 11A1 titrations with a 10-cm cell (Starna Cells, catalog no. 34-Q-100, volume 25 ml).
Kd values were determined by difference spectroscopy as previously reported ([33], [43]) but with some modifications. Briefly, a long-path quartz cuvette (10 cm, 25 ml) containing P450 11A1 (0.1 μM, in 100 mM potassium phosphate buffer (pH 7.4)) was prepared and a baseline was recorded in an OLIS-Cary 14 spectrophotometer. Where indicated, the redox partner Adx was added in equimolar concentration (0.1 μM) to P450. Sterol solutions (in 45% HPCD, w/v) were added to the cuvette, the contents of the cuvette were inverted to mix, and a spectrum was recorded (350–500 nm) after each addition. The total volume added to each cuvette was kept ≤2% (v/v, 0.25 ml) in the assay. The maximum absorbance difference (usually ΔA390−A418) was plotted against the total sterol concentration, and the data were fit to a quadratic equation in GraphPad Prism software (GraphPad, https://www.graphpad.com) to estimate the dissociation constant (Kd). A quadratic equation was used to correct the ligand concentration for the enzyme-bound concentration (used as Y=B+A/2∗1/E∗((Kd+E+X)−(Kd+E+X)^2−(4∗E∗X)) (or Y = B + (A/2)∗(1/E)∗((Kd + E + X)-sqrt((Kd + E + X)∧2 -(4∗E∗X)) in Prism software), where E = enzyme concentration, Kd = dissociation constant, and X = […]).

human P450 11A1 [2] = biological target: T2, human P450 11A1 (Homo sapiens, UniProt P05108); experiment: Effect of Tween 20 and lipids on P450 11A1 catalytic activity (cholesterol to pregnenolone); conditions: for effect on P450 11A1 catalytic activity: 50 μM cholesterol, 0.25 μM P450 11A1, lipids 30 μM phospholipid
T2 sequence (P05108 41-521 limits assumed): T1 sequence (P05108 41-521 limits assumed)
T2 sequence (P00257 59-186 partner): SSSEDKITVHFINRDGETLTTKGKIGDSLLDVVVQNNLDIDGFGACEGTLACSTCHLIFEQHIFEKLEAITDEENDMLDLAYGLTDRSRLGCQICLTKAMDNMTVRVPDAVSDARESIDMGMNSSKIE
Experimental: The substrate cholesterol and its 22R-OH and 20R,22R-(OH)2 products were delivered in 2-hydroxypropyl-β-cyclodextrin (HPCD) ([36]) in assays, circumventing the need to use any detergents or organic solvents.
Reactions were run in triplicate and the conversion of cholesterol to pregnenolone was calculated and plotted (nmol pregnenolone formed min^−1 (nmol P450)^−1). (Note: These assays were done with P450 11A1 purified in the absence of Tween 20.). AdR, adrenodoxin reductase; Adx, adrenodoxin; P450, cytochrome P450.
Reactions were run in triplicate and the conversion of cholesterol to pregnenolone was calculated and plotted (nmol pregnenolone formed min^−1 (nmol P450)^−1). AdR, adrenodoxin reductase; Adx, adrenodoxin; P450, cytochrome P450.
Sterol dilutions were performed in HPCD to ensure that the HPCD composition was equal throughout all incubations (final 4.5% w/v). The reaction mixture was split between vials (425 μl in each), and reactions were preincubated (37 °C, 5 min) prior to initiation (75 μl) with an NADPH-generating system (0.5 mM NADP^+, 10 mM glucose 6-phosphate, and 2 μg ml^−1 glucose 6-phosphate dehydrogenase) ([61]). Reactions (5 min) were terminated by extraction into CH2Cl2 (2 ml) and transferred to an ice bath. After the experiment was complete, the quenched reactions were subjected to centrifugation (10^3g, 5 min, 23 °C) to separate layers, the organic (bottom) layer of each sample was removed (1.6 ml) to fresh glass vials, and the samples were brought to dryness under a stream of nitrogen.

human P450 11A1 [3] = biological target: T2, human P450 11A1; experiment: Kinetic isotope effect assay, disappearance of d0- and d3-cholesterol under single-turnover conditions; assay type: biochemical; design: M A S T R S P R P F N E I P S P G D N; Met-Ala (N-terminal start residues in place of the transit peptide and Ile40) (N); made in house; host or cells: E. coli (P450 11A1 in C41(DE3); Adx and AdR in E. coli); conditions: for kinetic isotope effect: C-22 hydroxylation, single-turnover
Experimental: (§1) P450 11A1 incubations were performed under (low Adx) single-turnover conditions (5 μM P450, 5 μM cholesterol; see Experimental procedures) with d0- (authentic, unlabeled) and d3-cholesterol, and the disappearance of each was monitored by LC-atmospheric pressure chemical ionization-MS (m/z 369.3516 and 372.3705, respectively). In theory, if C-H bond breaking were rate-limiting in the initial hydroxylation then the rate of d3-cholesterol consumption would be slower relative to the d0 compound due to the increased strength of a C-D bond.
The kinetic isotope experiment was designed similarly to the benchtop experiment described above, but with some modifications. P450 11A1 (5 μM) was reconstituted with the redox partners AdR (10 μM) and Adx (5 μM) on ice (10 min) prior to dilution in potassium Hepes (50 mM, pH 7.4) and H2O and addition of d3-cholesterol substrate (5 μM). The mixture was preincubated (5 min) prior to initiation with NADPH (2.5 mM, from 25 mM in potassium Hepes (50 mM, pH 7.4)) thus bringing all components to their desired final concentrations. After completing the desired incubation time, an aliquot (500 μl) was removed from the incubation and added to vials containing CH2Cl2 (5 ml) and the vials were mixed with a vortex device and placed on ice. The quenched reactions were centrifuged (10^3g, 5 min, 23 °C) to separate layers, and the organic (bottom) layers were removed (4 ml) and transferred to fresh glass vials. The extraction process was repeated and the two extracts (2 × 4 ml) from each sample were combined to maximize product recovery. Samples (8 ml) were brought to dryness under a stream of nitrogen, and the dried residues were dissolved in CH3OH (25 μl) and transferred to autosampler vials for analysis.
(§2) Samples (held at 4 °C) were injected (10 μl) using a Waters Acquity UPLC system on a Acquity BEH octadecylsilane (C18) 2.1 mm × 50 mm (1.7 μm) UPLC column (held at 25 °C) with a flow rate of 0.5 ml min^−1 using an isocratic mobile phase of CH3CN (only). The column eluate was subjected to atmospheric pressure chemical ionization and analyzed using a Thermo Fisher Scientific LTQ XL Orbitrap mass spectrometer instrument operating in positive mode, scanning from m/z 100 to 500, with a resolution setting of 120,000. Data were processed using Xcalibur QualBrowser (Thermo Fisher Scientific) software (version 2.0.7; https://www.thermofishcer.com/order/catalog/product/OPTON).

P450 11A1 (CYP11A1) = biological target: T3, P450 11A1 (CYP11A1) (Homo sapiens, UniProt P05108); experiment: as above; assay type: biochemical; conditions: human, pH 7.4; 5 μM P450, 5 μM sterol, low Adx single-turnover; read-out: sterol half-life (t1/2) (converted)
T3 construct: M A S T R S P R P F N E I P S P G D N; Met-Ala (N-terminal start residues in place of the transit peptide and Ile40) (N); made in house; host or cells: E. coli (P450 11A1 in C41(DE3); Adx and AdR in E. coli)
T3 sequence (P05108 41-521 limits assumed): T1 sequence (P05108 41-521 limits assumed)
T3 sequence (P00257 59-186 partner): T2 sequence (P00257 59-186 partner)
Experimental: as §1
The kinetic isotope experiment was designed similarly to the benchtop experiment described above, but with some modifications. P450 11A1 (5 μM) was reconstituted with the redox partners AdR (10 μM) and Adx (5 μM) on ice (10 min) prior to dilution in potassium Hepes (50 mM, pH 7.4) and H2O and addition of d3-cholesterol substrate (5 μM). […]
as §2, with “Data were processed using Xcalibur QualBrowser (Thermo Fisher Scientific) software (version 2.0.7; https://www.thermofishcer.com/order/catalog/product/OPTON).” left out

human P450 11A1 [4] = biological target: T1, human P450 11A1; experiment: Stopped-flow ketoconazole trap, koff and binding rate measurements
Experimental: Interaction of the azole nitrogen atom with the P450 heme produces a bathochromic (“type II”) spectral shift (to ∼430 nm)—an inverse effect of the binding of substrate.
Measurement of kon rate(s) was not performed because the sterols are delivered in a solution of HPCD, from which the dissociation rate is not known.
Determinations of koff rates were performed as previously described ([33]).

CC(C)CCC=O [4-methylpentanal]
spectral shift with P450 11A1 (human P450 11A1 [1]): did not induce a spectral shift

CCCCCCCCCCCC(=O)OC[C@H](COP(=O)([O-])OCC[N+](C)(C)C)OC(=O)CCCCCCCCCCC [L-α-dilauroyl-sn-glycero-3-phosphocholine]
effect on P450 11A1 catalytic activity (human P450 11A1 [2]): not enhanced

CCCCCCCC/C=C\CCCCCCCC(=O)OC[C@H](COP(=O)([O-])OCC[N+](C)(C)C)OC(=O)CCCCCCC/C=C\CCCCCCCC [L-α-dioleyl-sn-glycero-3-phosphocholine]
effect on P450 11A1 catalytic activity (human P450 11A1 [2]): not enhanced

[2H]C([2H])(CCC(C)C)[C@@]([2H])(C)[C@H]1CC[C@H]2[C@@H]3CC=C4C[C@@H](O)CC[C@]4(C)[C@H]3CC[C@@]21C [d3-cholesterol, (20R)-Cholest-5-ene-20,22,22-d3-3β-ol]
rate of disappearance (human P450 11A1 [3]; 5 μM P450, 5 μM sterol, exponential decay fit): 0.032 s⁻¹
kinetic isotope effect (human P450 11A1 [3]): did not observe a kinetic isotope effect
kinetic isotope effect (human P450 11A1 [3]; listed as d3-Cholesterol): no kinetic deuterium isotope effect
half-life at 5 μM (P450 11A1 (CYP11A1)): 0.367 min

CC(=O)N1CCN(c2ccc(OCC3COC(Cn4ccnc4)(c4ccc(Cl)cc4Cl)O3)cc2)CC1 (centres unmarked) [ketoconazole, reference compound]
observed rate of ketoconazole binding (ΔA430) (human P450 11A1 [4]; 20 μM ketoconazole mixed with 2 μM P450 11A1, equal volumes, 23 °C): 5.3 s⁻¹
kon (human P450 11A1 [4]; read-out: fast phase of biexponential fit (ketoconazole kon), cholesterol data, trap experiment with P450-cholesterol complex): 710000 M⁻¹ s⁻¹
kon (human P450 11A1 [4]; read-out: fast phase of biexponential fit (ketoconazole kon), pregnenolone data, trap experiment with P450-pregnenolone complex): 790000 M⁻¹ s⁻¹
kon (human P450 11A1 [4]; read-out: rate of ketoconazole binding to unliganded P450 11A1 (kon), stopped-flow, unliganded enzyme): ≥ 500000 M⁻¹ s⁻¹

Tween 20
concentrations found inhibitory (human P450 11A1 [2]; 0.25 μM P450 11A1, 50 μM cholesterol, 40-fold Adx): > 0.008 % (w/v)
effect on P450 11A1 catalytic activity (human P450 11A1 [2]): inhibitory; also recorded: inhibited; also recorded: strongly inhibitory; also recorded: inhibits the enzyme

cardiolipin
effect on P450 11A1 catalytic activity (human P450 11A1 [2]): inhibit
